Values of other authors as cited in patent US7662571B2, “Mitochondrial markers of ischemia” (Nourheart Inc., priority 2005, dated 2010).
No end group written: not given here.

What was measured:
[1] = target: T1, FPR-like 2 (FPRL2) (Homo sapiens, UniProt P25089); conditions: FPRL2, low-affinity receptor
T1 sequence (P25089 1-353): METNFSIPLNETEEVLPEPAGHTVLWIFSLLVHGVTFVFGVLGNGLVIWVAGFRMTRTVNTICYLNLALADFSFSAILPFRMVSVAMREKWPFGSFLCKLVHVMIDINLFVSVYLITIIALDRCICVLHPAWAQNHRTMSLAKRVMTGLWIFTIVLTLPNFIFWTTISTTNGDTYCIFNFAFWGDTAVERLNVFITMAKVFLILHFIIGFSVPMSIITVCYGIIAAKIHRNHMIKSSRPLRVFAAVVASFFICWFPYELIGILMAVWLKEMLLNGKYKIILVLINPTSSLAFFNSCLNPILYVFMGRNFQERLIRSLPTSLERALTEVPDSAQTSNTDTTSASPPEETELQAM

[2] = target: T2, FMLP receptor (68-kDa protein) (Homo sapiens, UniProt P21462)
T2 sequence (P21462 1-350): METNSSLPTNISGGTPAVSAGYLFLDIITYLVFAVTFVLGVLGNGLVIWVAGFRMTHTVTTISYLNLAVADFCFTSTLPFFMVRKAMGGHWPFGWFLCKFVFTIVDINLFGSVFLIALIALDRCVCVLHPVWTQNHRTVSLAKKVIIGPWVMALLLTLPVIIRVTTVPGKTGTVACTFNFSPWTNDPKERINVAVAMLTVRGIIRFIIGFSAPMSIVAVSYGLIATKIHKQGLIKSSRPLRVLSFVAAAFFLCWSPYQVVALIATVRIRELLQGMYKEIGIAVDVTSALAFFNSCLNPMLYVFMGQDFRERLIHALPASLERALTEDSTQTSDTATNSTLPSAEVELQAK

[3] = system: neutrophils

formyl-Met-Leu-Phe [fMLP]
concentration needed for receptor activation [1]: only activated by high (micromolar) concentrations

RKAMGGHWPFGWFLCKFl (FMLP receptor derived peptide) [synthetic 17-aa peptide]
inhibition of ligand binding to the 68-kDa protein [2]: strongest inhibitor of ligand binding

LVVYPWT [spinorphin, Leu-Val-Val-Tyr-Pro-Trp-Thr]
chemotaxis of neutrophils caused by the low mwt chemoattractant [3]: inhibited
